Experimental data taken from PMC11420707, “Functional and Immunologic Mapping of Domains of the Reticulocyte-Binding Protein Plasmodium vivax PvRBP2a” (The Journal of Infectious Diseases, 2024).
Residues, ends and D or L forms follow the SMILES beside them. *: point of attachment. Biotin = O=C1N[C@H]2[C@H](CS[C@H]2CCCCC(=O)*)N1

How the values were obtained:
[1] = system: fresh human reticulocytes; assay: Reticulocyte-binding assay (flow cytometry); format: cell-based; conditions: 15 µg/mL biotinylated peptide, 37°C 1 hour; for binding to reticulocytes (% of reticulocytes bound): CD71-enriched cord blood reticulocytes, streptavidin-APC and thiazole orange, 2 independent replicates
Method: Fresh human cord blood was enriched for reticulocytes with CD71 microbeads and MACS columns (supplementary methods). Reticulocytes were washed twice with cold phosphate-buffered saline, added to 15 µg/mL of peptide solution, and incubated at 37°C for 1 hour. Reticulocytes were then stained with streptavidin-APC and thiazole orange at 37°C for 1 hour, washed, and acquired on a flow cytometer.
Reticulocytes were enriched from the human cord blood through the selection of CD71+ reticulocytes, using human CD71 microbeads (Miltenyi Biotec, clone AC108.1). Around 1-2ml of blood at 50% haematocrit in PBS was passed through a LS column. After two washing steps using PBS, the reticulocytes were stained with reticulocyte stain (Sigma Aldrich New Methylene Blue) and viewed under the microscope to ensure >80% purity of reticulocytes after selection.

[2] = system: P vivax invasion into human reticulocytes; assay: Inhibition of P vivax reticulocyte invasion; format: cell-based, Plasmodium vivax; conditions: peptide 100 µg/mL, 5 P vivax clinical isolates, parasitemia at 24 hours versus well without peptide
Method: • Antibodies: anti-CD98 mouse IgG1 mAb HBJ127 [8] (Absolute Antibody) and anti-human DARC mouse IG1 mAb 2C3 [9] (Absolute Antibody); working concentration, 25 µg/mL • Cluster A or B PvRBP2a peptides: PepLib 25, 41, 49, 52; working concentration, 100 µg/mL • Control PvRBP2a peptides: PepLib 50, 56; working concentration, 100 µg/mL
Fresh/frozen blood isolates of P vivax were matured in vitro and late stages concentrated with MACS LD columns. Purified infected red blood cells were mixed with cord blood–derived CD71+ reticulocytes (sorted with CD71 beads + MACS LS columns). Infected red blood cell–reticulocyte mixtures were each mixed with an antibody/peptide as stated previously. Wells without peptide/antibody served as controls. All groups were cultivated in vitro as described before. Smears were made at the start (H0) to ensure that ring-stage parasitemia was 0% and 24 hours later (H24) to determine parasitemia (10 000 red blood cells counted). Statistically significant differences were identified by 2-tailed paired t test with Shapiro-Wilk normality test, performed in Prism 10.1.2 (GraphPad).

[3] = target: PepLib_21 (PvRBP2a_(183-200)) (Plasmodium vivax); assay: BLI; biotinylated peptides (2 µM) loaded onto streptavidin-coated sensors, immersed in a solution of 200nM CD98
[4] = target: PepLib_40 (PvRBP2a_(335-352)) (Plasmodium vivax); assay: as above
[5] = target: PepLib_49 (PvRBP2a_(407-424)) (Plasmodium vivax); assay: as above
[6] = target: PepLib_36 (PvRBP2a_(303-320)) (Plasmodium vivax); assay: as above
[7] = system: sera from donors infected with P vivax; assay: ELISA of peptide antigenicity against donor sera; format: binding, human; conditions: for antigenicity against the seropositive sera mix: individual peptides, pooled sera of 20 P vivax-infected donors 1:267; for antigenic in seropositive cases (cases/donors): individual seropositive sera 1:1000, 20 donors
Text: We next sought to identify the immunodominant epitopes within the PvRBP2a23-767 CD98-binding domain. Groups of 5 adjacent peptides each were pooled and examined for antigenicity against a mix of sera from 20 donors infected with P vivax (positive by blood smear microscopy) via enzyme-linked immunosorbent assay (Figure 2A). Binding against at least 15 negative donors (non–P vivax exposed) was also examined to control for nonspecific binding. […] To confirm their antigenicity, these peptides were then examined against individual seropositive or seronegative sera. PepLib 3 and PepLib 53 were antigenic in a minority of seropositive cases (7/20 and 2/20, respectively; Supplementary Figure 3B), whereas PepLib 52 was antigenic in most seropositive cases (18/20; Figure 2B). Thus, we identified PepLib 52 (PvRBP2a431-448) as the most reactive linear B-cell epitope in the CD98-binding region of PvRBP2a.
Figure 2. Identification of antigenic and functional linear epitopes of PvRBP2a. A, Peptides were pooled into groups of 5 and coated on streptavidin plates. Pooled sera were added from donors infected with Plasmodium vivax. Following washing, binding of peptides to donor sera was quantified with an anti-human horseradish peroxidase secondary antibody. The baseline was determined to be the mean + 3 SD of the reactivity of the seronegative sample pool to all peptide pools, and peptide pools showing a greater optical density (OD) value were deemed immunoreactive. B, The antigenicity of the antigenic peptide hit, PepLib_52, was confirmed by plasma from 20 donors who were seropositive and 22 who were seronegative. C, The effect of PvRBP2a-derived linear epitope peptides on P vivax invasion was examined on 5 P vivax clinical isolates. Selected CD98-binding PvRBP2a peptide candidates that were in cluster A (PepLib_25, PepLib_49) or cluster B/immunodominant (PepLib_41, PepLib_52), as well as negative control peptides (PepLib_50, PepLib_56) and positive control monoclonal antibodies (anti-Duffy 2C3, anti-CD98 HBJ127), were tested for their ability to inhibit P vivax invasion into reticulocytes. One well without addition of peptide or antibody served as a control for measurement of baseline reinvasion level. *P < .05 by 2-tailed t test with Shapiro-Wilk normality test.
Streptavidin-coated plates (Pierce) were blocked with 1% casein/1% BSA in 0.1% PBST overnight at 4°C, then coated with blocked with PvRBP2a-derived biotinylated peptides at 1:1000 dilution (approximately 15ug/ml) in 0.2% casein/0.2% BSA at room temperature for 1 hour. Pooled or individual donor sera was then applied at 1:267 (pooled) or 1:1000 (individual) dilution in 0.2% casein/0.2% BSA at room temperature for 1 hour, followed by secondary goat […] IgG-HRP at 1:1000 dilution in 0.1% casein/0.1% BSA at room temperature for 1 hour, then TMB substrate (Surmodics, BioFX® TMB One Component HRP Microwell Substrate) incubation for 5 minutes.

[8] = target: soluble recombinant CD98 protein (Homo sapiens, UniProt P08195); assay: biochemical
Chain of soluble recombinant CD98 protein (P08195 218-630): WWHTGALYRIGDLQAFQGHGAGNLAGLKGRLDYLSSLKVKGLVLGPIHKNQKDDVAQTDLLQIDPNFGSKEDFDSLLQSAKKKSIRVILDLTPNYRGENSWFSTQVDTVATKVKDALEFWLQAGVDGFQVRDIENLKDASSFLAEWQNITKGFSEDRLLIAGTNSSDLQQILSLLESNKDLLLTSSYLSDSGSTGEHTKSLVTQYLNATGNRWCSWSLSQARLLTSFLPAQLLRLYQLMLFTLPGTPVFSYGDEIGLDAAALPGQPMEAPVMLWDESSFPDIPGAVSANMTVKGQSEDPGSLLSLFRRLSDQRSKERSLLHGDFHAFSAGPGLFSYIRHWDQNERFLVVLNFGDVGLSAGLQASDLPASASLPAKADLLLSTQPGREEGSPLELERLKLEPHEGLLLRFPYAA
Method: PvRBP2a epitopes for reticulocyte and CD98 binding. […] Reticulocytes were blocked with the polyclonal rabbit anti-CD98 antibody (KE020) or a rabbit isotype control antibody for 15 minutes before staining with biotinylated peptide candidates and detection with streptavidin-APC. Reticulocytes were distinguished from normocytes via thiazole orange staining. […] (B) Candidate binding peptides were tested for direct binding to CD98 via biolayer interferometry. 2µM biotinylated peptides were loaded onto streptavidin-coated sensors, which was immersed in a solution of 200nM CD98 to assess binding. (C) Peptides with detectable binding in the initial binding screen were further analyzed for their binding kinetics to CD98 via biolayer interferometry, with 3 independent replicates. The mean and standard error for dissociation constant (KD), on-rate (ka) and off-rate (kd) are given.
Binding sensorgrams were collected on the Octet Red 96e system. Fresh streptavidin sensors were used without any regeneration step. Streptavidin sensor, without biotinylated peptide loading, but with maximum concentration of non-biotinylated CD98 was used as the reference. Kinetic binding assays were performed using Octet Data Acquisition version 10.0.1.3 at 37°C with orbital shaking speed of 1,000 rpm. The assay was carried out in PBS buffer supplemented with 0.05% Tween-20 and 1mg/mL BSA (PBST/BSA). For initial screening, the biosensor was sequentially dipped into wells containing 200µL of solution each: i) baseline, PBST/BSA (30 s), ii) loading, 2µM biotinylated peptide fragment or vehicle control (VC) (5 min), iii) washing, PBST/BSA (30 s), iv) blocking, 25µM biocytin (5 min) to minimize non-specific binding of CD98, v) washing, PBST/BSA (30 s), vi) association, 200 nM non-biotinylated CD98 (30 min) and vii) dissociation, PBST/BSA (15 min).

“TLMLKVKQEIDNNVTISA [PepLib_41, biotinylated 18-mer of the PvRBP2a23-767 peptide library]” was tested, and the “binding to reticulocytes (% of reticulocytes bound)” value [1] was at least 10% and the “inhibition of parasite invasion into reticulocytes, mean” value (shortened to “inhibition”) [2] was −1.1%.

With “soluble recombinant CD98 protein (from UniProt P08195 1-529) (receptor)” the Kd [3] was 0.0549 µM, the Kd [4] was 0.07 µM and the Kd [5] was 0.0903 µM. It also gave a Kd [6] of 0.0475 µM.

In the case of “ADYARYSNLQIIDIKSKY [PepLib_60, biotinylated 18-mer of the PvRBP2a23-767 peptide library]”, the “binding to reticulocytes (% of reticulocytes bound)” value [1] is reported as at least 10%.

For “WPLQDSLNESDKFEYTNG [PepLib_3, biotinylated 18-mer of the PvRBP2a23-767 peptide library]”, the “antigenicity against the seropositive sera mix” value (from here on “antigenicity”) [7] was “showed antigenicity” and the “antigenic in seropositive cases (cases/donors)” value (“antigenic … (cases/donors)” for short) [7] was 7/20.

For `CC[C@H](C)[C@H](NC(=O)[C@H](CCC(=O)O)NC(=O)[C@H](Cc1ccc(O)cc1)NC(=O)[C@@H](NC(=O)[C@H](CC(=O)O)NC(=O)[C@@H](NC(=O)[C@H](CCC(=O)O)NC(=O)[C@H](CS)NC(=O)CNC(=O)[C@H](CO)NC(=O)CNC(=O)[C@H](CO)NC(=O)CCCC[C@@H]1SC[C@@H]2NC(=O)N[C@@H]21)[C@@H](C)O)[C@@H](C)O)C(=O)N[C@@H](CCSC)C(=O)N[C@@H](CC(C)C)C(=O)N[C@@H](CCC(=O)O)C(=O)N[C@H](C(=O)N[C@@H](Cc1ccc(O)cc1)C(=O)N[C@H](C(=O)N[C@@H](CCC(=O)O)C(=O)N[C@@H](CCCNC(=N)N)C(=O)N[C@H](C(=O)N[C@@H](CCCCN)C(=O)O)C(C)C)C(C)C)[C@@H](C)CC` [PepLib_36] (Biotin-SGSGCETDTYEIMLEIYVERVK-OH), the Kd [8] was 0.0475 µM.

`CC(C)C[C@H](NC(=O)[C@H](CO)NC(=O)[C@H](Cc1ccccc1)NC(=O)[C@H](CCCCN)NC(=O)[C@H](Cc1ccc(O)cc1)NC(=O)[C@@H](NC(=O)[C@H](C)NC(=O)[C@H](Cc1ccc(O)cc1)NC(=O)[C@H](Cc1ccccc1)NC(=O)[C@H](CC(N)=O)NC(=O)[C@H](C)NC(=O)[C@H](CO)NC(=O)[C@H](CC(=O)O)NC(=O)[C@H](Cc1ccccc1)NC(=O)[C@H](Cc1ccc(O)cc1)NC(=O)[C@H](CC(C)C)NC(=O)[C@H](CCCCN)NC(=O)[C@H](CCCCN)NC(=O)CNC(=O)[C@H](CO)NC(=O)CNC(=O)[C@H](CO)NC(=O)CCCC[C@@H]1SC[C@@H]2NC(=O)N[C@@H]21)[C@@H](C)O)C(=O)O` [PepLib_49] (Biotin-SGSGKKLYFDSANFYATYKFSL-OH) gave a Kd [8] of 0.0903 µM.

With “NFYATYKFSLKRADTTTA [PepLib_50, biotinylated 18-mer of the PvRBP2a23-767 peptide library; negative control peptide]” the “binding to reticulocytes (in words)” value [1] was “do not show binding to reticulocytes” and the “inhibition” value [2] was 10.4%.

With “TAALKEKGKLLANLYNKL [PepLib_52, biotinylated 18-mer of the PvRBP2a23-767 peptide library]” the “binding to reticulocytes (in words)” value [1] was “did not bind directly to reticulocytes”, the “antigenicity” value [7] was “showed antigenicity” and the “antigenic … (cases/donors)” value [7] was 18/20. For the same molecule, the “inhibition” value [2] was 60.2%.

With “LYFISKSESMISEFEDTF [PepLib_56, biotinylated 18-mer of the PvRBP2a23-767 peptide library; negative control peptide]” the “binding to reticulocytes (in words)” value [1] was “do not show binding to reticulocytes” and the “inhibition” value [2] was 50%.

For `CC[C@H](C)[C@H](NC(=O)[C@H](CCC(=O)O)NC(=O)[C@H](C)NC(=O)[C@H](Cc1ccccc1)NC(=O)[C@H](Cc1ccc(O)cc1)NC(=O)[C@H](CC(N)=O)NC(=O)[C@H](CCSC)NC(=O)[C@H](CCC(N)=O)NC(=O)[C@@H](NC(=O)CNC(=O)[C@H](CO)NC(=O)CNC(=O)[C@H](CO)NC(=O)CCCC[C@@H]1SC[C@@H]2NC(=O)N[C@@H]21)C(C)C)C(=O)N[C@@H](CCCCN)C(=O)N[C@@H](Cc1ccc(O)cc1)C(=O)N[C@@H](Cc1ccc(O)cc1)C(=O)N[C@H](C(=O)N[C@H](C(=O)N[C@@H](Cc1ccc(O)cc1)C(=O)N[C@@H](Cc1c[nH]cn1)C(=O)N[C@@H](Cc1ccc(O)cc1)C(=O)N[C@@H](CCC(=O)O)C(=O)O)[C@@H](C)O)[C@@H](C)CC` [PepLib_21] (Biotin-SGSGVQMNYFAEIKYYITYHYE-OH), the Kd [8] was 0.0549 µM.

For “YVNYLSTLKASLQLGVTL [PepLib_39, biotinylated 18-mer of the PvRBP2a23-767 peptide library]”, the “binding to reticulocytes (% of reticulocytes bound)” value [1] was at least 10%.

For “KLLANLYNKLITYVSEKI [PepLib_53, biotinylated 18-mer of the PvRBP2a23-767 peptide library]”, the “binding to reticulocytes (% of reticulocytes bound)” value [1] was at least 10%, the “antigenicity” value [7] was “showed antigenicity” and the “antigenic … (cases/donors)” value [7] was 2/20.

`CC[C@H](C)[C@H](NC(=O)[C@H](CCC(=O)O)NC(=O)[C@H](CCC(N)=O)NC(=O)[C@H](CCCCN)NC(=O)[C@@H](NC(=O)[C@H](CCCCN)NC(=O)[C@H](CC(C)C)NC(=O)[C@H](CCSC)NC(=O)[C@H](CC(C)C)NC(=O)[C@@H](NC(=O)[C@@H](NC(=O)CNC(=O)[C@H](CC(C)C)NC(=O)[C@H](CCC(N)=O)NC(=O)[C@H](CC(C)C)NC(=O)[C@H](CO)NC(=O)[C@H](C)NC(=O)[C@H](CCCCN)NC(=O)CNC(=O)[C@H](CO)NC(=O)CNC(=O)[C@H](CO)NC(=O)CCCC[C@@H]1SC[C@@H]2NC(=O)N[C@@H]21)C(C)C)[C@@H](C)O)C(C)C)C(=O)O` [PepLib_40] (Biotin-SGSGKASLQLGVTLMLKVKQEI-OH) was tested, and the Kd [8] was 0.07 µM.

With “PLMSSIQNQINSCVPKKA [PepLib_25, biotinylated 18-mer of the PvRBP2a23-767 peptide library]” the “binding to reticulocytes (% of reticulocytes bound)” value [1] was at least 10% and the “inhibition” value [2] was 49.6%.
